Reference: PMC10096180, “Half-Sandwich Type Platinum-Group Metal Complexes of C-Glucosaminyl Azines: Synthesis and Antineoplastic and Antimicrobial Activities” (Molecules, 2023)
Read-outs that look alike come from different tables or passages of the source.

How the values were obtained:
[1] = tested on: vancomycin-resistant Enterococcus (VRE) clinical isolates; test: Broth microdilution MIC, clinical VRE isolates; assay type: cell-based, E. faecium; conditions: 24 h, 0.08–40 μM
Method: (§1) We used a set of clinical isolates of S. aureus and E. faecium that were collected at the Medical Center of the University of Debrecen (Hungary) between 1 January 2018. and 31 December 2020. The clinical isolates were identified using a Microflex MALDI-TOF mass spectrometer (Bruker, Billerica, MA, USA). The antibiotic susceptibility of the isolates was tested following the European Committee on Antimicrobial Susceptibility Testing (EUCAST) guidelines, which were valid at the time of collection.
(§2) Microdilution experiments were performed according to the standards of EUCAST [85]. The bacterial isolates to be tested were grown on Mueller–Hinton agar plates. The inoculum density of bacteria was set at 5.0 × 10^5 CFU/mL in microtiter plates in a final volume of 200 μL Mueller–Hinton broth. The tested concentration range was 0.08–40 μM (10 concentrations, twofold serial dilutions), and a drug-free growth control and an inoculum-free negative control were included. The inoculated plates were incubated for 24 h at 37 °C, then visually assessed. Minimum inhibitory concentration (MIC) was defined as the lowest concentration with a 50%≤ inhibitory effect compared to the growth control. All experiments were performed at least twice in duplicate.

[2] = tested on: methicillin-resistant Staphylococcus aureus (MRSA) clinical isolates; test: Broth microdilution MIC, clinical MRSA isolates; assay type: cell-based; conditions: 24 h, 0.08–40 μM
Method: as §1, §2

A2780 cells [3] = test: MTT reduction assay, early toxicity, 4 h treatment; assay type: cell-based; conditions: inhibition at maximum concentration (100 μM) where no plateau, ND = not detectable; for inhibition at 100 µM: Homo sapiens, read-out: A2780 MTT Max Inhibition
Method: (§3) The complexes described above are intended to replace registered platinum complexes. Platinum complexes constitute the core of the chemotherapy regimen used in ovarian cancer; therefore, we used a cellular model of ovarian cancer, A2780, and primary human dermal fibroblasts as models of non-transformed cells (controls). For the characterization of the complexes, we used an MTT assay after 4 h of treatment for the detection of early toxicity and an SRB assay 48 h after treatment for the detection of cytostasis.
An MTT reduction assay was measures the activity of mitochondrial complex I and can be used to detect toxicity. The assay was performed in a manner similar to that described in [84]. Briefly, cells were plated in 96-well plates the day before the assay. Cells were treated with the compounds for 4 h; then, MTT was added to a 0.5 mg/mL final concentration, and cells were incubated at 37 °C in a cell incubator for 40–60 min as a function of the cell line being assessed. Culture medium was removed, the reduced MTT dye was dissolved in dimethyl-sulfoxide, and plates were measured in a plate photometer (Thermo Scientific Multiscan GO spectrophotometer, Waltham, MA, USA) at 540 nm. On each plate, wells were designed to contain vehicle-treated cells. In calculations, the readings for these wells were considered to 1, and all readings were expressed relative to these values.
(§4) Statistical analysis was performed using version 8.0.1 of GraphPad Prism. Values were tested for normal distribution using the Shapiro–Wilk normality test. Nonlinear regression was performed using the built-in “[Inhibitor] vs. response—Variable slope (four parameters), least square fit” utility of GraphPad, which yielded IC50 and Hill slope values if the sigmoid curves reached a plateau of inhibition and there was no decrease between two subsequent data points or when inhibition was over 90%. In other cases, the percentage of inhibition was taken for the maximum concentration (100 μM).

[4] = tested on: Enterococcus faecalis (ATCC29212); test: Broth microdilution MIC, reference strain; assay type: cell-based; conditions: 24 h, tested range 0.08–40 μM, read-out: MIC E. faecalis ATCC 29,212
Method: (§5) The reference strains of Staphylococcus aureus (ATCC29213) and Enterococcus faecalis (ATCC29212) were purchased from the ATCC (Manassas, VA, USA).
as §2

[5] = tested on: Staphylococcus aureus (ATCC29213); test: Broth microdilution MIC, reference strain; assay type: cell-based; conditions: 0.08–40 μM, read-out: MIC S. aureus ATCC 29213
Method: as §5, §2

A2780 cells [6] = test: SRB binding assay, cytostasis, 48 h treatment; assay type: cell-based; conditions: up to 100 μM, ND = not detectable
Method: as §3
An SRB assay measures protein content of cells in correlation with the cell number in an assay well and can therefore be used to assess cell proliferation or long-term cytostasis. Cells were seeded in 96-well plates the day before the assay. Cells were treated with the compounds for 48 h. Then medium was removed, and cells were fixed with 10% trichloroacetic acid. Fixed cells were washed in distilled water 3 times, followed by staining with SRB (0.4 m/V% dissolved in 1% acetic acid) for 10 min. Stained cells were washed in 1% acetic acid 5 times; acetic acid was removed, and cells were left to dry. Protein-bound SRB was released by adding 100 μL 10 mM Tris base. Plates were measured in a plate photometer (Thermo Scientific Multiscan GO spectrophotometer, Waltham, MA, USA) at 540 nm. On each plate, wells were designed to contain vehicle-treated cells. In calculations, the readings for these wells were considered to be 1, and all readings were expressed relative to these values.
as §4

[7] = Distribution coefficient (logD), n-octanol-PBS; assay type: physicochemical; conditions: n-octanol-PBS (pH = 7.4) system
Method: The logD values of the newly synthesized complexes were determined according to a procedure described in our previous publications. page 64: Ir-7b +1.17 Rh-7b +1.41 Ru-7c +1.31 Os-7c +1.59 Ir-7c +1.40 Rh-7c +1.13 Ru-7d +1.26 Os-7d +1.42 Ir-7d +1.30 Rh-7d +1.04 Ru-7e +2.22 Os-7e +2.21 Ir-7e +1.39 Rh-7e +1.66 *logD was determined in an n-octanol-PBS (pH = 7.4) system 64 (14 pictures or pasted objects on this page, not shown here)

[8] = Enterococcus, clinical isolate 25,051 VRE, read-out: MIC 25,051 VRE
[9] = Enterococcus, clinical isolate 25,498 VRE, read-out: MIC 25,498 VRE
[10] = Enterococcus, clinical isolate 27,085 VRE, read-out: MIC 27,085 VRE
[11] = Staphylococcus aureus, clinical isolate 20,426 MRSA, read-out: MIC 20,426 MRSA
[12] = Staphylococcus aureus, clinical isolate 24,035 MRSA, read-out: MIC 24,035 MRSA
[13] = Staphylococcus aureus, clinical isolate 24,268 MRSA, read-out: MIC 24,268 MRSA
[14] = Staphylococcus aureus, clinical isolate 24,272 MRSA, read-out: MIC 24,272 MRSA
[15] = Staphylococcus aureus, clinical isolate 24,328 MRSA, read-out: MIC 24,328 MRSA
[16] = Staphylococcus aureus, clinical isolate 24,408 MRSA, read-out: MIC 24,408 MRSA
[17] = Staphylococcus aureus, ATCC29213, 24 h

N[C@@H]1[C@@H](OCc2ccccc2)[C@H](OCc2ccccc2)[C@@H](COCc2ccccc2)O[C@H]1c1cnccn1 [Complex 3d, 2-(2′-Amino-2′-deoxy-3′,4′,6′-tri-O-benzyl-β-D-glucopyranosyl)pyrazine]
MIC [1, 8]: > 40 µM
MIC [1, 9]: > 40 µM
MIC [1, 10]: > 40 µM
MIC [2, 11]: > 40 µM
MIC [2, 12]: > 40 µM
MIC [2, 13]: > 40 µM
MIC [2, 14]: > 40 µM
MIC [2, 15]: > 40 µM
MIC [2, 16]: > 40 µM
A2780 MTT Max Inhibition (A2780 cells [3]): no activity
MIC ([4]; Enterococcus faecalis): > 40 µM
MIC [5, 17]: > 40 µM

N[C@@H]1[C@@H](O)[C@H](O)[C@@H](CO)O[C@H]1c1ccccn1 [Complex 5a, 2-(2′-Amino-2′-deoxy-β-D-glucopyranosyl)pyridine]
A2780 MTT Max Inhibition (A2780 cells [3]): did not exhibit any biological activity
A2780 SRB Max Inhibition (A2780 cells [6]): did not exhibit any biological activity

N[C@@H]1[C@@H](OC(=O)c2ccccc2)[C@H](OC(=O)c2ccccc2)[C@@H](COC(=O)c2ccccc2)O[C@H]1c1ncccn1 [Complex 7c, 2-(2′-Amino-2′-deoxy-3′,4′,6′-tri-O-benzoyl-β-D-glucopyranosyl)pyrimidine]
inhibition at 100 µM (A2780 cells [3]): 26.3%
A2780 SRB Max Inhibition (A2780 cells [6]): 79.53%

N[C@@H]1[C@@H](OC(=O)c2ccccc2)[C@H](OC(=O)c2ccccc2)[C@@H](COC(=O)c2ccccc2)O[C@H]1c1cnccn1 [Complex 7d, 2-(2′-Amino-2′-deoxy-3′,4′,6′-tri-O-benzoyl-β-D-glucopyranosyl)pyrazine]
inhibition at 100 µM (A2780 cells [3]): 18.1%
A2780 SRB Max Inhibition (A2780 cells [6]): 73.37%

N[C@@H]1[C@@H](OC(=O)c2ccccc2)[C@H](OC(=O)c2ccccc2)[C@@H](COC(=O)c2ccccc2)O[C@H]1c1ccc2ccccc2n1 [Complex 7e, 2-(2′-Amino-2′-deoxy-3′,4′,6′-tri-O-benzoyl-β-D-glucopyranosyl)quinoline]
MIC [1, 8]: > 40 µM
MIC [1, 9]: > 40 µM
MIC [1, 10]: > 40 µM
MIC [2, 11]: > 40 µM
MIC [2, 12]: > 40 µM
MIC [2, 13]: > 40 µM
MIC [2, 14]: > 40 µM
MIC [2, 15]: > 40 µM
MIC [2, 16]: > 40 µM
inhibition at 100 µM (A2780 cells [3]): 13.6%
MIC ([4]; Enterococcus faecalis): > 40 µM
MIC [5, 17]: > 40 µM
A2780 SRB Max Inhibition (A2780 cells [6]): 45.20%

Cc1c(C)c(C)[c-](C)c1C.F[P-](F)(F)(F)(F)F.N[C@@H]1[C@@H](OC(=O)c2ccccc2)[C@H](OC(=O)c2ccccc2)[C@@H](COC(=O)c2ccccc2)O[C@H]1c1cnccn1.[Cl][Ir+2] [Ir-7d]
logD [7]: 1.30
A2780 MTT Max Inhibition (A2780 cells [3]): 38.71%
A2780 SRB Max Inhibition (A2780 cells [6]): 80.44%

Cc1ccc(C(C)C)cc1.F[P-](F)(F)(F)(F)F.N[C@@H]1[C@@H](OC(=O)c2ccccc2)[C@H](OC(=O)c2ccccc2)[C@@H](COC(=O)c2ccccc2)O[C@H]1c1cnccn1.[Cl][Os+] [Os-7d]
logD [7]: 1.42
A2780 MTT Max Inhibition (A2780 cells [3]): 46.72%
A2780 SRB Max Inhibition (A2780 cells [6]): 80.44%

Cc1ccc(C(C)C)cc1.F[P-](F)(F)(F)(F)F.N[C@@H]1[C@@H](OC(=O)c2ccccc2)[C@H](OC(=O)c2ccccc2)[C@@H](COC(=O)c2ccccc2)O[C@H]1c1ccc2ccccc2n1.[Cl][Os+] [Os-7e]
logD [7]: 2.21
MIC ([1]; clinical isolate 25,051 VRE, read-out: MIC 25,051 VRE): >40 µM
MIC ([1]; clinical isolate 25,498 VRE, read-out: MIC 25,498 VRE): >40 µM
MIC ([1]; clinical isolate 27,085 VRE, read-out: MIC 27,085 VRE): >40 µM
MIC ([2]; clinical isolate 20,426 MRSA, read-out: MIC 20,426 MRSA): >40 µM
MIC ([2]; clinical isolate 24,035 MRSA, read-out: MIC 24,035 MRSA): >40 µM
MIC ([2]; clinical isolate 24,268 MRSA, read-out: MIC 24,268 MRSA): >40 µM
MIC ([2]; clinical isolate 24,272 MRSA, read-out: MIC 24,272 MRSA): >40 µM
MIC ([2]; clinical isolate 24,328 MRSA, read-out: MIC 24,328 MRSA): >40 µM
MIC ([2]; clinical isolate 24,408 MRSA, read-out: MIC 24,408 MRSA): >40 µM
A2780 MTT Max Inhibition (A2780 cells [3]): 27.04%
MIC [4]: >40 µM
MIC ([5]; 24 h): >40 µM
A2780 SRB Max Inhibition (A2780 cells [6]): 67.50%

Cc1c(C)c(C)[c-](C)c1C.F[P-](F)(F)(F)(F)F.N[C@@H]1[C@@H](OC(=O)c2ccccc2)[C@H](OC(=O)c2ccccc2)[C@@H](COC(=O)c2ccccc2)O[C@H]1c1cnccn1.[Cl][Rh+2] [Rh-7d]
logD [7]: 1.04
A2780 MTT Max Inhibition (A2780 cells [3]): 18.08%
A2780 SRB Max Inhibition (A2780 cells [6]): 64.76%

Cc1ccc(C(C)C)cc1.F[P-](F)(F)(F)(F)F.N[C@@H]1[C@@H](O)[C@H](O)[C@@H](CO)O[C@H]1c1ccccn1.[Cl][Ru+] [Ru-5a]
logD [7]: −1.91
A2780 MTT Max Inhibition (A2780 cells [3]): did not exhibit any biological activity
A2780 SRB Max Inhibition (A2780 cells [6]): did not exhibit any biological activity

Cc1ccc(C(C)C)cc1.F[P-](F)(F)(F)(F)F.N[C@@H]1[C@@H](OC(=O)c2ccccc2)[C@H](OC(=O)c2ccccc2)[C@@H](COC(=O)c2ccccc2)O[C@H]1c1cnccn1.[Cl][Ru+] [Ru-7d]
logD [7]: 1.26
A2780 MTT Max Inhibition (A2780 cells [3]): 64.04%
A2780 SRB Max Inhibition (A2780 cells [6]): 80.44%
